In patent publication US4055640A, “Compositions and methods for controlling the growth of bacteria, fungi and algae using certain derivatives of N-(2,2-dichlorovinyl)salicylamides” (Nippon Kayaku Co., Ltd., priority 1975, dated 1977):
Where a name gives a salt, the structure may show the parent alone.

Key:
[1] = test system: green algae; assay: Degree of propagation on slime test boards (Example 27); type: cell-based; conditions: same method, shaking culture for 2 days
In short: (§1)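 Wood slime test boards were soaked in Waxman's liquid medium holding 0.02 part active compound (as 10% water-soluble concentrate) per 100 parts medium. Medium was inoculated with bacteria from a circular water system, fungi or green algae and shake-cultured 2 days at 27°-34° C. Propagation on the boards was scored with symbols.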

[2] = test system: bacteria gathered from circular water system; assay: as above; type: cell-based; conditions: shaking culture for 2 days
In short: as §1

[3] = test system: fungi; assay: as above; type: cell-based; conditions: same method, shaking culture for 2 days
In short: as §1

[4] = test system: Penicillium Citrinum; assay: Region of growth-inhibition around treated cotton cloth (Example 26); type: cell-based; conditions: emulsifiable concentrate diluted 100 times
In short: (§2)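 Cotton cloth soaked 2 min in a 100-fold water dilution of the emulsifiable concentrate, air-dried, cut into 1 cm squares and placed on inoculated potato-agar plates. After 4 days at 28 °C, width of the growth-inhibition zone around the cloth was measured.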

[5] = test system: Bacillus subtilis; assay: as above; type: cell-based; conditions: emulsifiable concentrate diluted 100 times
In short: as §2

[6] = test system: Aspergillus niger; assay: as above; type: cell-based; conditions: emulsifiable concentrate diluted 100 times
In short: as §2

[7] = test system: Staphylococcus oureus; assay: as above; type: cell-based; conditions: emulsifiable concentrate diluted 100 times
In short: as §2

[8] = acute oral toxicity against a mouse; conditions: in vivo
[9] = test system: Bacillus subtilis; assay: Growth inhibition zones around treated clothes (Example 16); type: cell-based
Procedure: (§3) The emulsifiable concentrate which was prepared by Example 10 and which contained 10% of Compound No. 1 was entered to three vessels. These emulsifiable concentrates were diluted with water 500 times, 1000 times and 2000 times respectively. Emulsions were obtained. Each of silk, cotton and vinylon clothes was dipped into the three different concentrations of emulsions for 3 minutes and dried for 24 hours at room temperature. The clothes dreid were cut into a square of which a side was 1 cm long.
(§4) Test bacteria and fungi were inoculated on the whole surfaces of the plates of potato-dextrose agar medium. The square clothes were placed on the plates of agar culture medium of potato. The inoculated bacteria and fungi were incubated at 28° C for 4 days. The width of zones in which the growth of the test bateria and fungi was inhibited in the environment of the clothes was measured.

[10] = test system: Penicillium citrenum; assay: as above; type: cell-based
Procedure: as §3, §4

[11] = test system: Aspergillus niger; assay: as above; type: cell-based
Procedure: as §3, §4

[12] = test system: Staphylococcus aureus; assay: as above; type: cell-based
Procedure: as §3, §4

[13] = test system: fungi in the paints or the cutting oil; assay: Growth of fungi in paints or cutting oil (Example 11); conditions: oil soluble concentrate, 0.1%
Procedure: The above ingredients were mixed. An oil soluble concentrate was obtained. In the form of the oil soluble concentrate, Compound No. 1 was added to paints or the cutting oil in an amount of 0.1%.

[14] = test system: Bacteria, fungi and slime; assay: Inhibition of bacteria, fungi and slime in use (Example 13); conditions: water soluble concentrate; 10-20 ppm in water, 0.01%-0.1% in pastes
Procedure: Before application, the concentrate was diluted 500-1000 times with water and sprayed on the inside of cotes to prevent the growth of bacterial and fungi.
The solution was added to water in circular water systems to inhibit the growth of slime. The concentration of Compound No. 20 in the water was 10-20 ppm.
An amount from 0.01%-0.1% of Compound No. 20 as the solution was added to pastes or binding agents to prevent rottenness of them.

CC(=O)Oc1ccccc1C(=O)NC=C(Cl)Cl [Compound No. 6, O-acetyl-N-(2,2-dichlorovinyl) salicylamide]
Degree of propagation [1]: -
Degree of propagation [2]: -
Degree of propagation [3]: -
width of the region of growth-inhibition [4]: 7 mm
width of the region of growth-inhibition [5]: 9 mm
width of the region of growth-inhibition [6]: 5 mm
width of the region of growth-inhibition [7]: 7 mm

O=C(NC=C(Cl)Cl)c1ccccc1O [Compound No. 1, N-(β,β-dichlorovinyl) salicylamide]
LD50 [8]: > 6000 mg/kg
width of growth inhibition zones ([9]; Cotton, 0.005 %): 3 mm
width of growth inhibition zones ([9]; Cotton, 0.01 %): 6 mm
width of growth inhibition zones ([9]; Cotton, 0.02 %): 10 mm
width of growth inhibition zones ([9]; Silk, 0.005 %): 3 mm
width of growth inhibition zones ([9]; Silk, 0.01 %): 6 mm
width of growth inhibition zones ([9]; Silk, 0.02 %): 10 mm
width of growth inhibition zones ([9]; Vinylon, 0.005 %): 2 mm
width of growth inhibition zones ([9]; Vinylon, 0.01 %): 5 mm
width of growth inhibition zones ([9]; Vinylon, 0.02 %): 9 mm
width of growth inhibition zones ([10]; Cotton, 0.005 %): 5 mm
width of growth inhibition zones ([10]; Cotton, 0.01 %): 7 mm
width of growth inhibition zones ([10]; Cotton, 0.02 %): 9 mm
width of growth inhibition zones ([10]; Silk, 0.005 %): 4 mm
width of growth inhibition zones ([10]; Silk, 0.01 %): 6 mm
width of growth inhibition zones ([10]; Silk, 0.02 %): 7 mm
width of growth inhibition zones ([10]; Vinylon, 0.005 %): 3 mm
width of growth inhibition zones ([10]; Vinylon, 0.01 %): 5 mm
width of growth inhibition zones ([10]; Vinylon, 0.02 %): 7 mm
width of growth inhibition zones ([11]; Cotton, 0.005 %): 6 mm
width of growth inhibition zones ([11]; Cotton, 0.01 %): 8 mm
width of growth inhibition zones ([11]; Cotton, 0.02 %): 11 mm
width of growth inhibition zones ([11]; Silk, 0.005 %): 5 mm
width of growth inhibition zones ([11]; Silk, 0.01 %): 7 mm
width of growth inhibition zones ([11]; Silk, 0.02 %): 8 mm
width of growth inhibition zones ([11]; Vinylon, 0.005 %): 4 mm
width of growth inhibition zones ([11]; Vinylon, 0.01 %): 6 mm
width of growth inhibition zones ([11]; Vinylon, 0.02 %): 8 mm
width of growth inhibition zones ([12]; Cotton, 0.005 %): 5 mm
width of growth inhibition zones ([12]; Cotton, 0.01 %): 9 mm
width of growth inhibition zones ([12]; Cotton, 0.02 %): 13 mm
width of growth inhibition zones ([12]; Silk, 0.005 %): 5 mm
width of growth inhibition zones ([12]; Silk, 0.01 %): 8 mm
width of growth inhibition zones ([12]; Silk, 0.02 %): 12 mm
width of growth inhibition zones ([12]; Vinylon, 0.005 %): 4 mm
width of growth inhibition zones ([12]; Vinylon, 0.01 %): 7 mm
width of growth inhibition zones ([12]; Vinylon, 0.02 %): 11 mm
growth of fungi in the paints or the cutting oil [13]: controlled

O=C(NC=C(Cl)Cl)c1ccccc1O [Compound No. 20, sodium salt of N-(β,β-dichlorovinyl) salicylamide]
inhibition of bacteria, fungi and slime [14]: inhibited for a long time
